Reference: US20220267270A1, “STING MODULATORS, COMPOSITIONS, AND METHODS OF USE” (University of South Florida, priority 2019, published 2022)

Columns and labels:
[1] = target: His-tagged human STING CDN domain (Homo sapiens, UniProt Q86WV6); test: Surface Plasmon Resonance (SPR) binding; details: steady state
Experimental: SPR was employed for binding measurements using His-tagged human STING CDN domain. A GE Healthcare Biacore T200 was equipped with an Ni-NTA chip. […] The sensorgrams were analyzed using Biacore T200 Software 3.0 (GE Healthcare) and steady state was measured at 4 sec before injection stop, exported into Graphpad, and fit vs concentration using a one site specific binding model to calculate the apparent equilibrium dissociation constant (KD). Where appropriate, kinetics were measured using a 1:1 Langmuir binding model with Rmax set to local to obtain the association rate (Kon), dissociation (Koff), and the KD.

[2] = target: His-labeled STING (hSTING) (Homo sapiens, UniProt Q86WV6); test: Microscale thermophoresis (MST) binding assay; details: for direct binding to hSTING by MST: FIG. 4
Chain of His-labeled STING (hSTING) (Q86WV6 153-340 H232R limits assumed): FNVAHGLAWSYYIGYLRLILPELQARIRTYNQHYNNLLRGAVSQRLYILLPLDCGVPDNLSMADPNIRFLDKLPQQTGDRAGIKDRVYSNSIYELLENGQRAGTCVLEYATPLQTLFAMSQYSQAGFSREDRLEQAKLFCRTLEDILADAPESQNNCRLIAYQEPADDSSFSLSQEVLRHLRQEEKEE
Experimental: Nanotemper Monolith NT.115 labeled thermophoresis machine was used with standard treated capillary tubes using samples comprised of labeled protein and titrations of small molecule in 1×PBS. […] Detection of the protein was performed using the blue detection channel with LED excitation power set to 90% and MST set to high allowing 3 s prior to MST on to check for initial fluorescence differences, 25 s for thermophoresis, and 3 s for regeneration after MST off.

[3] = test system: STING-induced IRF3 expression; test: Competition of 335504 with agonist 2,3-cGAMP in THP-1 cells; format: cell-based, human
From the text: FIG. 6 depicts the effect of various concentrations of 335504 and known agonist 2,3-cGAMP on luminescence measured from THP-1 monocytic leukemia cells. […] This effect, however, is not seen at higher concentrations due to the synergistic effect of the compounds on the IFN-β signaling pathway in these cells.

[4] = test system: STING pathway (interferon stimulated genes, IRF3 promoter); test: Luciferase reporter assay in THP1-ISG-Lucia cells
Experimental: To maintain selection pressure, 10 μg/ml of blasticidin and 100 μg/ml of Zeocin™ was added to the growth medium every other passage.
For compounds, 10 mM stock solution in 100% DMSO was diluted 1:4 with ultrapure Milli Q water. For the positive control, 1 mM stock solution in 100% Milli Q H2O was diluted 3:1 with water. 50 μL of QUANTI-Luc™ luminesence assay reagent (Invivogen) was added after 18-24 h incubation period. Expression of Lucia luciferase was quantified by measuring luminescence from duplicate treatments. Data illustrated were average luminescence changes shown relative to DMSO-treated cells.
For compounds, 10 mM stock solution in 100% DMSO was diluted 1:4 with ultrapure Milli Q water. For the positive control, 1 mM stock solution in 100% Milli Q H2O was diluted 3:1 with water. 50 μL of QUANTI-Luc™ luminesence assay reagent (Invivogen, San Diego, Calif., USA) was added after 18-24 h incubation period. Expression of Lucia luciferase was quantified by measuring luminescence from duplicate treatments. Data illustrated are average luminescence changes shown relative to DMSO-treated cells. A Glowmax luminometer (Promega, Madison, Wis., USA) was used. QUANTI-Luc™ was prepared following the manufacturer's instructions. 10 μl of THP1-Dual™ KI-hSTING-R232 cell culture supernatant was pipetted into each well in a 96-well white (opaque) plate. 50 μl of QUANTI-Luc™ was added to each well. The measurement was then immediately taken using a 4 sec incubation time and integrating over 1 sec.
A luciferase assay utilizing monocytic leukemia THP-1 cells was carried out to determine the upregulation of the IRF3 promoter gene as a downstream indicator of STING pathway activation.
FIG. 4C depicts a plot of luminescence vs. log of concentration of a luciferase assay utilizing monocytic leukemia THP-1 cells that was carried out to determine the regulation of interferon stimulated genes (ISG).

hSTING = hSTING (Homo sapiens, UniProt Q86WV6); details: native ligand, literature ITC value used for model validation; read-out: ITC binding energetics (KD); cited from earlier work
Chain of hSTING (Q86WV6 139-379 H232R limits assumed): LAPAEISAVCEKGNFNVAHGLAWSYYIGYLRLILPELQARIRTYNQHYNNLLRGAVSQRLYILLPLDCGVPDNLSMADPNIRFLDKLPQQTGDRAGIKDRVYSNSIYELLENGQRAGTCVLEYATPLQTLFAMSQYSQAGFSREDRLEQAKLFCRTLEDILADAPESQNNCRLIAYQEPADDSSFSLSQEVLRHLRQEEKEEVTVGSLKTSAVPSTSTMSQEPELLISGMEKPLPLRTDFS

Chain of His-tagged human STING CDN domain (Q86WV6 153-340 H232R limits assumed): as the sequence (Q86WV6 153-340 H232R limits assumed) above

Compound | Kd [1] | direct binding to hSTING by MST [2] | Kd ([2]; rough initial estimate of binding affinity) | IC50 ([3]; Homo sapiens, THP-1 monocytic leukemia cells, with agonist 2,3-cGAMP, FIG. 7) | competition with 2,3-cGAMP (luminescence) ([3]; single to double digit concentrations of 335504, FIG. 6) | ISG output (luminescence) vs DMSO blank ([4]; 3 μM, FIG. 2) | effect on cells at higher concentrations ([4]; >20 μM, DMSO percentages increased) | EC50 ([4]; Homo sapiens, THP-1, read-out: luciferase assay EC50) | effect in luciferase assay compared to 2,3-cGAMP ([4]; THP-1 cells) | increase in Luciferase activity compared to the blank ([4]; THP-1 cells, FIG. 4) | Kd (hSTING)
Cc1c(Cl)cccc1Nc1ncccc1C(=O)OCC(O)CO (stereo not shown) [NSC 335504] | 0.43 ± 0.14 µM | bind to hSTING | 0.26 ± 0.066 µM | ~0.0048 µM | competition of the compound with 2,3cGAMP can be observed | large increase in ISG output | appeared to cause cell death | 29 ± 1.6 µM | significantly lower | 50% | 
Nc1nc2c(ncn2[C@@H]2O[C@@H]3COP(=O)(O)O[C@H]4[C@@H](O)[C@H](n5cnc6c(=O)[nH]c(N)nc65)O[C@@H]4COP(=O)(O)O[C@H]3[C@H]2O)c(=O)[nH]1 [c-di-GMP] | 4.8 µM | binds but with lesser affinity |  |  |  |  |  |  |  |  | 1.2 µM
